Laboratory results published in article PMC4542539, “The Multiple DSF-family QS Signals are Synthesized from Carbohydrate and Branched-chain Amino Acids via the FAS Elongation Cycle” (Scientific Reports, 2015).

Target: RpfF (Xanthomonas campestris, UniProt Q7CLS3)
Assay: HPLC and LC-MS of product formed by purified His-tagged RpfF
Type: biochemical
Conditions: formed from 3-hydroxydodecanoyl-ACP (dehydratase and thioesterase); Tris-HCl pH 7.5, ATP, Mg2+, Vibrio harveyi AasS; 37 °C, 30 min

RpfF, sequence (Q7CLS3 entry or part of it): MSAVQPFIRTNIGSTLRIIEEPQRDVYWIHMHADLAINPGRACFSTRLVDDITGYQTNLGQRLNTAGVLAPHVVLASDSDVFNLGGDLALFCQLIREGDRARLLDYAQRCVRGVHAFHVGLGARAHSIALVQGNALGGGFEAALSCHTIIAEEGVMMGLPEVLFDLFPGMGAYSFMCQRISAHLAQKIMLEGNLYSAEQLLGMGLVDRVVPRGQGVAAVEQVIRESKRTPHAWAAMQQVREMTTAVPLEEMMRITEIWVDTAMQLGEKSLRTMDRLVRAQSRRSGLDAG

CCCCCCCCC/C=C\C(=O)O [BDSF, cis-2-dodecenoic acid]
HPLC and LC-MS of product formed by purified His-tagged RpfF: detected in the reaction mixture containing RpfF and 3-OH-C12:0-ACP
